Literature values in US6358541B1, “Topical preparation for the treatment of hair loss” (priority 2000, dated 2002).

Legend:
[1] = topical
[2] = 0.1 wt. % adapalene gel, versus petroleum jelly control
comedones = settings: topical
[3] = vapor; OSHA list 1990

O=C(O)CCCCCCCC(=O)O [Azeleic acid, 1,7 heptanedicarboxylic acid]
irritation relative to tretinoin (retinoic acid) [1]: less irritation than tretinoin

COc1ccc(-c2ccc3cc(C(=O)O)ccc3c2)cc1C12CC3CC(CC(C3)C1)C2 [adapalene, Adapalene]
irritative potential [2]: low irritative potential only slightly greater than a petroleum jelly control
comedolytic activity (comedones): significant comedolytic activity

[O][Cl+][O-] [chlorine dioxide]
Permissible Exposure Level (PEL) [3]: 0.1 ppm

CC1=C(/C=C/C(C)=C/C=C/C(C)=C/C=O)C(C)(C)CCC1 [retinaldehyde, Retinaldehyde]
irritation relative to tretinoin (retinoic acid) [1]: significantly less irritating than retinoic acid
